Assay results reported in patent publication US10485235B2, “Aryloxypyrimidinyl ethers as herbicides” (FMC Corporation, priority 2015, dated 2019).

How the values were obtained:
Format in all cases: in vivo
[1] = tested on: blackgrass (Alopecurus myosuroides); experiment: Test A postemergence, blackgrass; conditions: postemergence, 0 to 100 scale, 0 is no effect, 100 is complete control, approximately 10 days
Procedure, shortened: (§1)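 Pre- and postemergence greenhouse screen in loam–sand soil. Test chemicals were delivered in a non-phytotoxic solvent with surfactant, preemergence as a directed spray onto seeded soil and postemergence onto 2–10 cm seedlings. Injury was judged by eye after ~10 days on a 0–100 scale.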

rice (Oryza sativa) = experiment: Test B flooded paddy test, rice; conditions: 250 g ai/ha, Flood; visual rating after 13 to 15 days; scale 0 to 100, 0 is no effect, 100 is complete control
Procedure, shortened: (§2)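 Seedlings at the 2-leaf stage are flooded to 3 cm and treated via the paddy water. Greenhouse plants are compared with controls after 13 to 15 days and given a 0 (no effect) to 100 (complete control) rating.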

[2] = tested on: ragweed (common ragweed, Ambrosia elatior); experiment: Test A postemergence, ragweed; conditions: postemergence, 0 to 100 scale, 0 is no effect, 100 is complete control, approximately 10 days
Procedure, shortened: as §1

[3] = tested on: foxtail, giant (giant foxtail, Setaria faberii); experiment: Test A preemergence, giant foxtail; conditions: Preemergence, 0 to 100 scale (0 no effect, 100 complete control)
Procedure, shortened: as §1

[4] = tested on: barnyardgrass (Echinochloa crus-galli); experiment: Test B flooded paddy test, barnyardgrass; conditions: 250 g ai/ha, Flood; visual rating after 13 to 15 days; scale 0 to 100, 0 is no effect, 100 is complete control
Procedure, shortened: as §2

[5] = tested on: ryegrass, Italian (Italian ryegrass, Lolium multiflorum); experiment: Test A postemergence, Italian ryegrass; conditions: postemergence, 0 to 100 scale, 0 is no effect, 100 is complete control, approximately 10 days
Procedure, shortened: as §1

[6] = tested on: ducksalad (Heteranthera limosa); experiment: Test B flooded paddy test, ducksalad; conditions: 250 g ai/ha, Flood; visual rating after 13 to 15 days; scale 0 to 100, 0 is no effect, 100 is complete control
Procedure, shortened: as §2

[7] = tested on: barnyardgrass (Echinochloa crus-galli); experiment: Test A preemergence, barnyardgrass; conditions: Preemergence, 0 to 100 scale (0 no effect, 100 complete control)
Procedure, shortened: as §1

[8] = tested on: pigweed (Amaranthus retroflexus); experiment: Test A postemergence, pigweed; conditions: postemergence, 0 to 100 scale, 0 is no effect, 100 is complete control, approximately 10 days
Procedure, shortened: as §1

corn (Zea mays) = experiment: Test A postemergence, corn; conditions: postemergence, 0 to 100 scale, 0 is no effect, 100 is complete control, approximately 10 days
Procedure, shortened: as §1

[9] = tested on: sedge, umbrella (small-flower umbrella sedge, Cyperus difformis); experiment: Test B flooded paddy test, umbrella sedge; conditions: 250 g ai/ha, Flood; visual rating after 13 to 15 days; scale 0 to 100, 0 is no effect, 100 is complete control
Procedure, shortened: as §2

[10] = tested on: foxtail, giant (giant foxtail, Setaria faberii); experiment: Test A postemergence, giant foxtail; conditions: postemergence, 0 to 100 scale, 0 is no effect, 100 is complete control, approximately 10 days
Procedure, shortened: as §1

[11] = tested on: wheat (Triticum aestivum); experiment: Test A postemergence, wheat; conditions: postemergence, 0 to 100 scale, 0 is no effect, 100 is complete control, approximately 10 days
Procedure, shortened: as §1

[12] = tested on: pigweed (Amaranthus retroflexus); experiment: Test A preemergence, pigweed; conditions: Preemergence, 0 to 100 scale (0 no effect, 100 complete control)
Procedure, shortened: as §1

[13] = tested on: ragweed (common ragweed, Ambrosia elatior); experiment: Test A preemergence, ragweed; conditions: Preemergence, 0 to 100 scale (0 no effect, 100 complete control)
Procedure, shortened: as §1

kochia (Kochia scoparia) [14] = experiment: Test A postemergence, kochia; conditions: postemergence, 0 to 100 scale, 0 is no effect, 100 is complete control, approximately 10 days
Procedure, shortened: as §1

kochia (Kochia scoparia) [15] = experiment: Test A preemergence, kochia; conditions: Preemergence, 0 to 100 scale (0 no effect, 100 complete control)
Procedure, shortened: as §1

[16] = tested on: ryegrass, Italian (Italian ryegrass, Lolium multiflorum); experiment: Test A preemergence, Italian ryegrass; conditions: Preemergence, 0 to 100 scale (0 no effect, 100 complete control)
Procedure, shortened: as §1

[17] = tested on: galium (catchweed bedstraw, Galium aparine); experiment: Test A postemergence, galium; conditions: postemergence, 0 to 100 scale, 0 is no effect, 100 is complete control, approximately 10 days
Procedure, shortened: as §1

[18] = tested on: barnyardgrass (Echinochloa crus-galli); experiment: Test A postemergence, barnyardgrass; conditions: postemergence, 0 to 100 scale, 0 is no effect, 100 is complete control, approximately 10 days
Procedure, shortened: as §1

SMILES	Plant response rating, Blackgrass ([1]; 125 g ai/ha)	Plant response rating, Rice (rice (Oryza sativa))	Plant response rating, Ragweed ([2]; 125 g ai/ha)	Plant response rating, Foxtail, Giant ([3]; 125 g ai/ha)	Plant response rating, Barnyardgrass [4]	Plant response rating, Ryegrass, Italian ([5]; 125 g ai/ha)	Plant response rating, Ducksalad [6]	Plant response rating, Barnyardgrass ([7]; 125 g ai/ha)	Plant response rating, Pigweed ([8]; 125 g ai/ha)	Plant response rating, Corn (corn (Zea mays); 125 g ai/ha)	Plant response rating, Sedge, Umbrella [9]	Plant response rating, Foxtail, Giant ([10]; 125 g ai/ha)	Plant response rating, Wheat ([11]; 125 g ai/ha)	Plant response rating, Pigweed ([12]; 125 g ai/ha)	Plant response rating, Ragweed ([13]; 125 g ai/ha)	Plant response rating, Kochia (kochia (Kochia scoparia) [14]; 125 g ai/ha)	Plant response rating, Kochia (kochia (Kochia scoparia) [15]; 125 g ai/ha)	Plant response rating, Ryegrass, Italian ([16]; 125 g ai/ha)	Plant response rating, Galium ([17]; 125 g ai/ha)	Plant response rating, Barnyardgrass ([18]; 125 g ai/ha)	further results
N#CCCCOc1c(C#N)cccc1Oc1ncc(Cl)cn1 [Compound 22]	0	0	10	90	0	0	0	20	80	20	0	10	20	100	30	90	90	0	50	0	Plant response rating, Blackgrass ([1]; 31 g ai/ha): 0; Plant response rating, Ragweed ([2]; 31 g ai/ha): 0; Plant response rating, Foxtail, Giant ([3]; 31 g ai/ha): 0; Plant response rating, Ryegrass, Italian ([5]; 31 g ai/ha): 0; Plant response rating, Barnyardgrass ([7]; 31 g ai/ha): 0; Plant response rating, Pigweed ([8]; 31 g ai/ha): 30; Plant response rating, Corn (corn (Zea mays); 31 g ai/ha): 10; Plant response rating, Foxtail, Giant ([10]; 31 g ai/ha): 0; Plant response rating, Wheat ([11]; 31 g ai/ha): 0; Plant response rating, Pigweed ([12]; 31 g ai/ha): 80; Plant response rating, Ragweed ([13]; 31 g ai/ha): 10; Plant response rating, Kochia (kochia (Kochia scoparia) [14]; 31 g ai/ha): 80; Plant response rating, Kochia (kochia (Kochia scoparia) [15]; 31 g ai/ha): 70; Plant response rating, Ryegrass, Italian ([16]; 31 g ai/ha): 0; Plant response rating, Galium ([17]; 31 g ai/ha): 20; Plant response rating, Barnyardgrass ([18]; 31 g ai/ha): 0
N#CCCCOc1c(F)cccc1Oc1ncc(Cl)cn1 [Compound 24]	0	0	10	30	0	0	30	20	40	0	0	0	0	90	0	80	60	0	20	0	Plant response rating, Blackgrass ([1]; 500 g ai/ha): 20; Plant response rating, Ragweed ([2]; 500 g ai/ha): 50; Plant response rating, Foxtail, Giant ([3]; 500 g ai/ha): 100; Plant response rating, Ryegrass, Italian ([5]; 500 g ai/ha): 0; Plant response rating, Barnyardgrass ([7]; 500 g ai/ha): 70; Plant response rating, Pigweed ([8]; 500 g ai/ha): 70; Plant response rating, Corn (corn (Zea mays); 500 g ai/ha): 10; Plant response rating, Foxtail, Giant ([10]; 500 g ai/ha): 30; Plant response rating, Wheat ([11]; 500 g ai/ha): 0; Plant response rating, Pigweed ([12]; 500 g ai/ha): 100; Plant response rating, Ragweed ([13]; 500 g ai/ha): 70; Plant response rating, Kochia (kochia (Kochia scoparia) [14]; 500 g ai/ha): 100; Plant response rating, Kochia (kochia (Kochia scoparia) [15]; 500 g ai/ha): 100; Plant response rating, Ryegrass, Italian ([16]; 500 g ai/ha): 20; Plant response rating, Galium ([17]; 500 g ai/ha): 80; Plant response rating, Barnyardgrass ([18]; 500 g ai/ha): 50
Fc1cccc(Oc2ncc(Cl)cn2)c1OC/C=C/C(F)(F)F [Compound 25]	20	0	0	100	0	0	100	90	50	10	75	30	0	100	0	90	30	60	50	40	Plant response rating, Blackgrass ([1]; 500 g ai/ha): 80; Plant response rating, Ragweed ([2]; 500 g ai/ha): 0; Plant response rating, Foxtail, Giant ([3]; 500 g ai/ha): 100; Plant response rating, Ryegrass, Italian ([5]; 500 g ai/ha): 70; Plant response rating, Barnyardgrass ([7]; 500 g ai/ha): 100; Plant response rating, Pigweed ([8]; 500 g ai/ha): 70; Plant response rating, Corn (corn (Zea mays); 500 g ai/ha): 20; Plant response rating, Foxtail, Giant ([10]; 500 g ai/ha): 80; Plant response rating, Wheat ([11]; 500 g ai/ha): 20; Plant response rating, Pigweed ([12]; 500 g ai/ha): 100; Plant response rating, Ragweed ([13]; 500 g ai/ha): 20; Plant response rating, Kochia (kochia (Kochia scoparia) [14]; 500 g ai/ha): 100; Plant response rating, Kochia (kochia (Kochia scoparia) [15]; 500 g ai/ha): 100; Plant response rating, Ryegrass, Italian ([16]; 500 g ai/ha): 100; Plant response rating, Galium ([17]; 500 g ai/ha): 100; Plant response rating, Barnyardgrass ([18]; 500 g ai/ha): 90
FCCCOc1c(F)cccc1Oc1ncc(Cl)cn1 [Compound 26]	0	0	0	50	0	0	30	40	60	0	0	10	0	90	0	60	10	0	70	10	Plant response rating, Blackgrass ([1]; 500 g ai/ha): 50; Plant response rating, Ragweed ([2]; 500 g ai/ha): 20; Plant response rating, Foxtail, Giant ([3]; 500 g ai/ha): 100; Plant response rating, Ryegrass, Italian ([5]; 500 g ai/ha): 0; Plant response rating, Barnyardgrass ([7]; 500 g ai/ha): 100; Plant response rating, Pigweed ([8]; 500 g ai/ha): 90; Plant response rating, Corn (corn (Zea mays); 500 g ai/ha): 10; Plant response rating, Foxtail, Giant ([10]; 500 g ai/ha): 70; Plant response rating, Wheat ([11]; 500 g ai/ha): 0; Plant response rating, Pigweed ([12]; 500 g ai/ha): 100; Plant response rating, Ragweed ([13]; 500 g ai/ha): 20; Plant response rating, Kochia (kochia (Kochia scoparia) [14]; 500 g ai/ha): 90; Plant response rating, Kochia (kochia (Kochia scoparia) [15]; 500 g ai/ha): 100; Plant response rating, Ryegrass, Italian ([16]; 500 g ai/ha): 20; Plant response rating, Galium ([17]; 500 g ai/ha): 50; Plant response rating, Barnyardgrass ([18]; 500 g ai/ha): 60
